Source: US4803275A, “2-oxo-5-methyl-6-[4-heptene]-2H-pyrano[3,2-c]pyridine” (Takeda Chemical Industries, Ltd., priority 1986, dated 1989)
≈ marks a conversion by molar mass, not a printed value.

Columns and labels:
Candida utilis IFO 0619 = experiment: Antimicrobial activity; assay type: cell-based; conditions: Williopsis jadinii, IFO0619, TSA medium containing 1% glucose, read-out: Minimum Inhibitory Concentration (MIC)
[1] = system: Proteus vulgaris IFO 3045; experiment: Antimicrobial activity; assay type: cell-based; conditions: IFO3045, TSA medium containing 1% glucose, read-out: Minimum Inhibitory Concentration (MIC)
[2] = system: Penicillium chrysogenum IFO 4626; experiment: Antimicrobial activity; assay type: cell-based; conditions: IFO4626, TSA medium containing 1% glucose, read-out: Minimum Inhibitory Concentration (MIC)
[3] = system: Trichophyton mentagrophytes IFO 7522; experiment: Antimicrobial activity; assay type: cell-based; conditions: IFO7522, TSA medium containing 1% glucose, read-out: Minimum Inhibitory Concentration (MIC)
Solubility = assay type: physicochemical
[4] = system: Bacillus subtilis PCI 219; experiment: Antimicrobial activity; assay type: cell-based; conditions: PCI219, TSA medium containing 1% glucose, read-out: Minimum Inhibitory Concentration (MIC)
[5] = Acute toxicity, single intraperitoneal dose in mice; conditions: mouse, in vivo, ip
[6] = system: synthesis of fatty acid (rat liver homogenates); experiment: Inhibitory activity of the synthesis of fatty acid (rat liver homogenates, 1-14C-acetate); assay type: biochemical, rat (SD-strain); conditions: vs. no addition of the inhibiting agent, 37° C., 60 min
Method: Determination of the Inhibitory activity of the synthesis of fatty acid was conducted by using homogenates prepared from rat livers. Preparation of the rat liver homogenates, composition of the reaction solution for determination of inhibitory activity and method of the determination were in accordance with the method by J. Iliffe et al. described on "Biochemical Journal" 91, 369 (1964) and the method by T. Kariya et al. described on "Biochemical and Biophysical Research Communications" 80, 1022 (1978). More specifically, SD-strain male rats (6-week old) had been fasted for 2 days and then refed for 24 hours. They were killed by blood letting. The livers were then removed immediately, to which was added a 0.25M sucrose solution containing 2 mM EDTA, 5 mM nicotinamide and 1 mM 2-mercaptoethanol so that the final volume of the solution may be 4 ml relative to 1 g of the wet weight of the livers. […]
Into a 10 ml flask containing 1.85 ml of a reaction mixture consisting of 45 mM of tris-HCl buffer (pH 7.4), 10 mM of KHCO3, 4 mM of MgCl2, 45 mM of KCl, 5 mM of K2 HPO4, 15 mM of potassium citrate, 1 mM of NADP, 2 mM of ATP, 5 mM of glucose-6-phosphate, 0.4 mM of coenzyme A, 5 mM of dithiothreitol and 0.5 ml of the enzyle solution, was blown a mixture gas (95% O2 :5% CO2). […] The radio-activity extracted into the petroleum ether layer was measured.

[7] = system: Pseudomonas aeruginosa IFO 3080; experiment: Antimicrobial activity; assay type: cell-based; conditions: IFO3080, TSA medium containing 1% glucose, read-out: Minimum Inhibitory Concentration (MIC)
[8] = system: Trichophyton rubrum IFO 5467; experiment: Antimicrobial activity; assay type: cell-based; conditions: IFO5467, TSA medium containing 1% glucose, read-out: Minimum Inhibitory Concentration (MIC)
[9] = system: Staphylococcus aureus FDA 209 P; experiment: Antimicrobial activity; assay type: cell-based; conditions: FDA209, TSA medium containing 1% glucose, read-out: Minimum Inhibitory Concentration (MIC)
[10] = system: Candida parapsilosis IFO 1396; experiment: Antimicrobial activity; assay type: cell-based; conditions: Lodderomyces parapsilosis, IFO1396, TSA medium containing 1% glucose, read-out: Minimum Inhibitory Concentration (MIC)
Escherichia coli K 12 = experiment: Antimicrobial activity; assay type: cell-based; conditions: K12, TSA medium containing 1% glucose, read-out: Minimum Inhibitory Concentration (MIC)
[11] = system: Candida albicans IFO 0583; experiment: Antimicrobial activity; assay type: cell-based; conditions: IFO0583, TSA medium containing 1% glucose, read-out: Minimum Inhibitory Concentration (MIC)
[12] = system: Aspergillus niger IFO 4066; experiment: Antimicrobial activity; assay type: cell-based; conditions: IFO4066, TSA medium containing 1% glucose, read-out: Minimum Inhibitory Concentration (MIC)
Pyricularia oryzae P-18 = experiment: microbe, parasite or virus in culture; assay type: cell-based; conditions: P18, read-out: Minimum Inhibitory Concentration (MIC)
[13] = system: Candida parakrusei IFO 0640; experiment: Antimicrobial activity; assay type: cell-based; conditions: IFO0640, TSA medium containing 1% glucose, read-out: Minimum Inhibitory Concentration (MIC)
[14] = system: Cryptococcus neoformans IFO 0410; experiment: Antimicrobial activity; assay type: cell-based; conditions: IFO0410, TSA medium containing 1% glucose, read-out: Minimum Inhibitory Concentration (MIC)
Bacillus cereus IFO 3514 = experiment: Antimicrobial activity; assay type: cell-based; conditions: IFO3514, TSA medium containing 1% glucose, read-out: Minimum Inhibitory Concentration (MIC)
[15] = system: Candida tropicalis IFO 0006; experiment: Antimicrobial activity; assay type: cell-based; conditions: IFO0006, TSA medium containing 1% glucose, read-out: Minimum Inhibitory Concentration (MIC)
Candida krusei IFO 1395 = experiment: Antimicrobial activity; assay type: cell-based; conditions: Pichia kudriavzevii, IFO1395, TSA medium containing 1% glucose, read-out: Minimum Inhibitory Concentration (MIC)
[16] = system: Rhodotorula rubra IFO 0907; experiment: Antimicrobial activity; assay type: cell-based; conditions: IFO0907, TSA medium containing 1% glucose, read-out: Minimum Inhibitory Concentration (MIC)
[17] = system: Saccharomyces cerevisiae IFO 0209; experiment: Antimicrobial activity; assay type: cell-based; conditions: IFO0209, TSA medium containing 1% glucose, read-out: Minimum Inhibitory Concentration (MIC)

SMILES: CCC/C=C/CCC1Oc2cc[nH]c(=O)c2C=C1C (stereo not drawn) [FA-4283]
- MIC (Candida utilis IFO 0619): 3.13 µg/mL (≈ 12.1 µM)
- MIC [1]: > 100 µg/mL
- MIC [2]: > 100 µg/mL
- MIC [3]: 6.25 µg/mL (≈ 24.1 µM)
- Solubility (Solubility; chloroform): readily soluble
- Solubility (Solubility; diethyl ether): soluble
- Solubility (Solubility; dimethyl sulfoxide): readily soluble
- Solubility (Solubility; dimethyl-formamide): readily soluble
- Solubility (Solubility; ethanol): readily soluble
- Solubility (Solubility; ethyl acetate): soluble
- Solubility (Solubility; methanol): readily soluble
- Solubility (Solubility; n-hexane): sparingly soluble
- Solubility (Solubility; petroleum ether): sparingly soluble
- Solubility (Solubility; water): insoluble
- MIC [4]: > 100 µg/mL
- LD50 [5]: ≥ 400 mg/kg
- inhibitory activity of the synthesis of fatty acid ([6]; 5×10^-4 M): 97%
- inhibition of the synthesis of fatty acid ([6]; 10^-3 M): 98%
- MIC [7]: > 100 µg/mL
- MIC [8]: 6.25 µg/mL (≈ 24.1 µM)
- MIC [9]: > 100 µg/mL
- MIC [10]: > 100 µg/mL
- MIC (Escherichia coli K 12): > 100 µg/mL
- MIC [11]: 3.13 µg/mL (≈ 12.1 µM)
- MIC [12]: > 100 µg/mL
- MIC (Pyricularia oryzae P-18): 3.18 µg/mL (≈ 12.3 µM)
- MIC [13]: > 100 µg/mL
- MIC [14]: 25 µg/mL (≈ 96.4 µM)
- MIC (Bacillus cereus IFO 3514): > 100 µg/mL
- MIC [15]: 50 µg/mL (≈ 193 µM)
- MIC (Candida krusei IFO 1395): > 100 µg/mL
- MIC [16]: 0.39 µg/mL (≈ 1.5 µM)
- MIC [17]: > 100 µg/mL
